Measured values published in patent US7351700B2, “Aminomethylpyrimidines as allosteric enhancers of the GABAB receptors” (Hoffmann-La Roche Inc., priority 2004, dated 2008).

Legend:
human GABABR1aR2a = target: T1, human GABABR1aR2a (Homo sapiens, UniProt O75899+Q9UBS5); experiment: Intracellular Ca2+ mobilization assay (FLIPR) in CHO-GABABR1aR2a-Gα16 cell; format: cell-based; details: for GABA shift Log [EC50(GABA + 10 μM cp)/EC50(GABA alone)]: 10 μM enhancer applied 15 min before GABA (0.0003-30 μM); for Emax: enhancer 0.001-30 μM in presence of 10 nM GABA (EC10), normalized to 10 μM GABA = 100%, 10 nM GABA = 0%, read-out: Emax (%) at 10 nM GABA alone = 0% 10 μM GABA alone = 100%; for EC50: enhancer concentration-response in presence of 10 nM GABA
T1 construct: expressed in transfected cells
T1 sequence (Q9UBS5 15-961 limits assumed): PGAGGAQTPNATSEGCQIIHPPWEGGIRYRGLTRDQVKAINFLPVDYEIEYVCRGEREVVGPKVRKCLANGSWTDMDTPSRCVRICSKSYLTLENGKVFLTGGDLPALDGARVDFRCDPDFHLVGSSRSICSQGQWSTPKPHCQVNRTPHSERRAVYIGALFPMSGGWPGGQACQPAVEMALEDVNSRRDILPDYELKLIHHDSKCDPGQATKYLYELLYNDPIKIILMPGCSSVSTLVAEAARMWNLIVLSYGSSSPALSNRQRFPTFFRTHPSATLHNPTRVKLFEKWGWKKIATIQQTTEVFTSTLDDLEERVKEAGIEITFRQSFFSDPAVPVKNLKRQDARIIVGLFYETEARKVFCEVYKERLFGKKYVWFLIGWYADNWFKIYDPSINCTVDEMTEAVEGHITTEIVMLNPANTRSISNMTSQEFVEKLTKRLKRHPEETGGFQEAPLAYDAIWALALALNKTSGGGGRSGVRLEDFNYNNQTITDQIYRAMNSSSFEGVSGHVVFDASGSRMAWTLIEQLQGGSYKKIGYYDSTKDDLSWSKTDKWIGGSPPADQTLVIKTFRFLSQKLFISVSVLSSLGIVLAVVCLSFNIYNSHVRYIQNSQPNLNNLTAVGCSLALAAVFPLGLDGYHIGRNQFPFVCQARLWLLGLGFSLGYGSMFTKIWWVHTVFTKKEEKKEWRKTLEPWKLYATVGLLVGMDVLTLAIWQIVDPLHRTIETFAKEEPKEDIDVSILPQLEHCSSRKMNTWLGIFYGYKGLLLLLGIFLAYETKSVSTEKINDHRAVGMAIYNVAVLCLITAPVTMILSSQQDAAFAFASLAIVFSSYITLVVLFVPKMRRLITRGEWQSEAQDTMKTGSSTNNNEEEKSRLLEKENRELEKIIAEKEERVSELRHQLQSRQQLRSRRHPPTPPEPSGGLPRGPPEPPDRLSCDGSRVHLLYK
T1 sequence (O75899 42-941): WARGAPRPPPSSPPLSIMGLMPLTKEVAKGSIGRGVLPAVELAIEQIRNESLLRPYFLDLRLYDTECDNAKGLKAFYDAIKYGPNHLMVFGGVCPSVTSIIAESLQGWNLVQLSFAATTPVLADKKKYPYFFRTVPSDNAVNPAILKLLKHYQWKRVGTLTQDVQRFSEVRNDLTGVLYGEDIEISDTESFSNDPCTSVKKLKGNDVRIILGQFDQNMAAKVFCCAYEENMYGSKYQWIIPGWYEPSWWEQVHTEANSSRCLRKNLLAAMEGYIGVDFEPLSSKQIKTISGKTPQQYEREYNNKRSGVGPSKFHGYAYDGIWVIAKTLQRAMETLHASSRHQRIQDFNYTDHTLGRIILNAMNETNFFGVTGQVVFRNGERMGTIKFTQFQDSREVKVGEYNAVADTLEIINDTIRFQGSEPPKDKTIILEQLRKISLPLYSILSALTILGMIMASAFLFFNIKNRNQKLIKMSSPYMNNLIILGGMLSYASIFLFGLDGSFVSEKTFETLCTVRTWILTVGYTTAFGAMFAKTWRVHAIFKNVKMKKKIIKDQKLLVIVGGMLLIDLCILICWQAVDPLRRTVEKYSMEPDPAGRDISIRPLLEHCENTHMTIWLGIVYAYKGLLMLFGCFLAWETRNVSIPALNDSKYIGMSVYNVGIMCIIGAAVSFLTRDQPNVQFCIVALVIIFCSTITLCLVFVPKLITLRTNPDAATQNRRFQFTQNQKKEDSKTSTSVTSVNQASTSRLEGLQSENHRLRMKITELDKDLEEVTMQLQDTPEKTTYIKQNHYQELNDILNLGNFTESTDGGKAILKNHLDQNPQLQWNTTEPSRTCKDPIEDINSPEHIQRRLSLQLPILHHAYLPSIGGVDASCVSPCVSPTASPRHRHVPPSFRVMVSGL
Protocol: Intracellular Ca^2+ Mobilization Assay
The Chinese Hamster Ovary (CHO) cells stably expressing human GABABR1aR^2a and Gα16 were seeded at 5×10^4 cells/well in the poly-D-lysine treated, 96-well, black/clear-bottomed plates (BD Biosciences, Palo Alto, Calif.). 24 h later, the cells were loaded for 90 min at 37° C. with 4 μM Flou-4 acetoxymethyl ester (Catalog No. F-14202, Molecular Probes, Eugene, Oreg.) in loading buffer (1×HBSS, 20 mM HEPES, 2.5 mM Probenecid). Hanks' Balanced Salt Solution (HBSS) (10×) (catalog No. 14065-049) and HEPES (1M) (catalog No. 15630-056) were purchased from Invitrogen, Carlsbad, Calif. Probenecid (250 mM) (catalog No. P8761) was from Sigma, Buchs, Switzerland. The cells were washed five times with loading buffer to remove excess dye and intracellular calcium mobilization, [Ca^2+ ]i were measured using a Fluorometric Imaging Plate Reader (FLIPR, Molecular Devices, Menlo Park, Calif.) as described previously (Porter et al., Br. J. Pharmacol., 128, 13-20, 1999). The enhancers were applied 15 min before the application of the GABA. For GABA shift assay, concentration-response curves of GABA (0.0003-30 μM) were determined in the absence and presence of 10 μM enhancer. The GABA-shift is defined as Log [EC50 (GABA+10 μM enhancer)/EC50 (GABA alone)]. The % maximum enhancing effect (% Emax) potency (EC50 value) of each enhancer was determined from concentration-response curve of the enhancer (0.001-30 μM) in the presence of 10 nM (GABA) (EC10). Responses were measured as peak increase in fluorescence minus basal, normalized to the maximal stimulatory effect induced by 10 μM GABA alone (considered 100%) and 10 nM GABA alone (considered 0%). The data were fitted with the equation Y=100+(Max −100)/(1+(EC50/[drug])^n) where Max is the maximum effect, EC50 the concentration eliciting a half-maximum effect and n the Hill slope.

[1] = rats; cited from earlier work
[2] = PO, cited from earlier work
[3] = passive avoidance behavioral test in mice and rats; cited from earlier work
[4] = elevated plus maze (rat), elevated zero maze (mice and rats), stress-induced hyperthermia (mice); cited from earlier work

| Compound | GABA shift Log [EC50(GABA + 10 μM cp)/EC50(GABA alone)] (human GABABR1aR2a) | Emax (human GABABR1aR2a) | EC50 (human GABABR1aR2a) | other results |
| --- | --- | --- | --- | --- |
| Cc1cc(CN2CCOCC2)nc(SCc2ccc(C(C)(C)C)cc2)n1 [Example 11, 4-[2-(4-tert-Butyl-benzylsulfanyl)-6-methyl-pyrimidin-4-ylmethyl]-morpholine] | −0.60 | 41% | 4.2 µM | – |
| CC(C)(CO)Cc1cc(C(C)(C)C)c(O)c(C(C)(C)C)c1 [CGP7930, 2,6-di-tert-butyl-4-(3-hydroxy-2,2-dimethyl-propyl)-phenol] | – | – | – | decreasing cocaine self-administration [1]: effective |
| NCC(CC(=O)O)c1ccc(Cl)cc1 (stereo not drawn) [Baclofen, β-chlorophenyl GABA] | – | – | – | side effects (spontaneous locomotor activity, rotarod, body temperature, traction test) ([2]; 2.5-15 mg/kg): showed these side effects |
| CCCCCCSc1nc(CN2CCOCC2)cc(C(F)(F)F)n1 [Example 39, 4-(2-Hexylsulfanyl-6-trifluoromethyl-pyrimidin-4-ylmethyl)-morpholine] | −0.48 | 62% | 6.4 µM | – |
| CSc1nc(NC2CCCC2)c([N+](=O)[O-])c(NC2CCCC2)n1 [GS39783, N,N_-dicyclopentyl-2-methylsulfanyl-5-nitro-pyrimidine-4,6-diamine] | – | – | – | decreasing cocaine self-administration [1]: effective; effect on cognition performance [3]: did not have any effect; anxiolytic-like effects [4]: exhibited anxiolytic-like effects; effect on spontaneous locomotor activity, rotarod, body temperature and traction test ([2]; 0.1-200 mg/kg): no effect |
| CCCCCCSc1nc(CC)cc(CN2CCOCC2)n1 [Example 41, 4-(2-Hexylsulfanyl-6-ethyl-pyrimidin-4-ylmethyl)-morpholine] | −0.86 | 60% | 4.1 µM | – |
| CCCCCCSc1nc(C)cc(CN2C[C@@H]3C[C@@H](C2)c2cccc(=O)n2C3)n1 [Example 35, (1S,5S)-3-(2-Hexylsulfanyl-6-methyl-pyrimidin-4-ylmethyl)-1,2,3,4,5,6-hexahydro-1,5-methano-pyrido [1,2-a][1,5]diazocin-8-one] | −0.92 | 62% | 1.8 µM | – |

Further lines, with some results ahead:

| GABA shift Log [EC50(GABA + 10 μM cp)/EC50(GABA alone)] (human GABABR1aR2a) | Emax (human GABABR1aR2a) | EC50 (human GABABR1aR2a) | Compound | other results |
| --- | --- | --- | --- | --- |
| −0.71 | 61% | 6.3 µM | CCCCCCSc1nc(C)cc(CN2[C@H](C)CCC[C@@H]2C)n1 [Example 38, 4-(cis-2,6-Dimethyl-piperidin-1-ylmethyl)-2-hexylsulfanyl-6-methyl-pyrimidine] | – |
| −0.75 | 46% | 2.2 µM | CCCCCCSc1nc(C)cc(CN2CCOCC2)n1 [Example 1, 4-(2-Hexylsulfanyl-6-methyl-pyrimidin-4-ylmethyl)-morpholine] | – |
| −0.70 | 49% | 4.4 µM | CCCCCCSc1nc(C)cc(C(C)N2CCOCC2)n1 (stereo not drawn) [Example 43, 4-[1-(2-Hexylsulfanyl-6-methyl-pyrimidin-4-yl)-ethyl]-morpholine] | – |
| −0.76 | 74.2% | 8.2 µM | CCCCCCSc1nc(C)cc(CN2C(C)CCCC2C)n1 (stereo not drawn) [Example 37, 4-(2,6-Dimethyl-piperidin-1-ylmethyl)-2-hexylsulfanyl-6-methyl-pyrimidine] | – |
| −0.50 | 48% | 8.5 µM | CCCCCCSc1nc(C)cc(CN2CCCC2)n1 [Example 16, 2-Hexylsulfanyl-4-methyl-6-pyrrolidin-1-ylmethyl-pyrimidine] | – |
| −0.69 | 60% | 9.6 µM | CCCCCCSc1nc(C)cc(CN2CCCCC2C)n1 (stereo not drawn) [Example 31, 2-Hexylsulfanyl-4-methyl-6-(2-methyl-piperidin-1-ylmethyl)-pyrimidine] | – |
| −0.55 | 52% | 1.7 µM | CCCCCSc1nc(C)cc(CN2CCOCC2)n1 [Example 2, 4-(6-Methyl-2-pentylsulfanyl-pyrimidin-4-ylmethyl)-morpholine] | – |
